How the values were obtained:
[1] = 298.15 K; 101.33 kPa; Liquid; Vibrating tube method
[2] = refractive index (Na D-line) (dimensionless); conditions: 298.15 K; 101.33 kPa; Liquid; Standard Abbe refractometry
[3] = refractive index (Na D-line) (dimensionless); xn = mol fraction of the nth substance listed; conditions: 298.15 K, 101.3 kPa, Liquid, Standard Abbe refractometry
[4] = xn = mol fraction of the nth substance listed; conditions: 298.15 K, 101.3 kPa, Liquid, Vibrating tube method

CC(CC(C)(C)C)CP(=O)([O-])CC(C)CC(C)(C)C.CCCCCCCCCCCCCC[P+](CCCCCC)(CCCCCC)CCCCCC
Conditions | mass density [kg/m3] | refractive index
[1] | 886.43 | –
[2] | – | 1.47125

CCCCCCCCCCCCCC[P+](CCCCCC)(CCCCCC)CCCCCC.[Cl-] [trihexyl(tetradecyl)phosphonium chloride]
Conditions | mass density [kg/m3] | refractive index
[1] | 891.82 | –
[2] | – | 1.48175

CCCCCCCCCCCCCC[P+](CCCCCC)(CCCCCC)CCCCCC.[Cl-] [trihexyl(tetradecyl)phosphonium chloride] + CC(C)OC(C)C
Conditions | mass density, [4] [kg/m3] | refractive index, [3]
x2 = 0.0515 | 889.99 | 1.4808
x2 = 0.0994 | 888.06 | 1.4794
x2 = 0.2017 | 883.38 | 1.4763
x2 = 0.2989 | 878.11 | 1.4726
x2 = 0.4018 | 871.47 | 1.4678
x2 = 0.4997 | 863.46 | 1.4641
x2 = 0.5994 | 852.63 | 1.4553
x2 = 0.7017 | 836.78 | 1.4478
x2 = 0.8004 | 814.03 | 1.4384
x2 = 0.8993 | 778.62 | 1.4076
x2 = 0.9491 | 752.99 | 1.3881

CCCCCCCCCCCCCC[P+](CCCCCC)(CCCCCC)CCCCCC.[Cl-] [trihexyl(tetradecyl)phosphonium chloride] + CCO
Conditions | mass density, [4] [kg/m3] | refractive index, [3]
x2 = 0.0616 | 891.17 | 1.4814
x2 = 0.1053 | 890.69 | 1.4807
x2 = 0.2113 | 889.27 | 1.4789
x2 = 0.3038 | 887.74 | 1.4764
x2 = 0.4034 | 885.65 | 1.4742
x2 = 0.499 | 882.9 | 1.4709
x2 = 0.6004 | 878.9 | 1.466
x2 = 0.7038 | 872.77 | 1.4585
x2 = 0.7993 | 863.65 | 1.4473
x2 = 0.8999 | 845.08 | 1.425
x2 = 0.9497 | 826.4 | 1.4058
x2 = 0.9808 | 805.94 | 1.3801
